The values below come from patent US5354913A, “Optically active phenol derivatives and preparation thereof” (Takeda Chemical Industries, Ltd., priority 1992, dated 1994).

pIC50: −log10 of the molar value.

For one data set, the system named is guinea-pig platelets. Put plainly: U-46619 (thromboxane A2 mimic)-induced aggregation in guinea-pig platelets (Experiment 1). The data set is classed as cell-based. The settings on record: guinea-pig PRP, U-46619 3×10^-7 M. Here is the method: Thromboxane A2 antagonistic activity Effect on thromboxane A2 minic (U-46619) - induced aggregation in guinea-pig platelets.
(§1) Method: Blood was collected in 3.15% sodium citrate (0.1 ml for 0.9 ml of blood) by aortic puncture from anesthetized guinea-pigs. Citrated blood samples were centrifuged at 950 rpm for 10 minutes and 2,000 rpm for 10 minutes at room temperature to obtain platelet-rich plasma (PRP) and platelet-poor plasma (PPP), respectively. The platelet count of PRP was adjusted to 5,000,000/μl with PPP. Platelet aggregation was measured with a photometer (Hematracer 6, Niko Bioscience, Japan). PRP (250 μl) was preincubated at 37° C. for 2 minutes and then incubated for 2 minutes with drug solution (25 μl), followed by stimulation with U-46619 (25 μl). Effect of drug was shown as the percent inhibition of maximal aggregation of drug-treated group versus that of control group. The concentration of U-46619 was chosen to obtain submaximal aggregation in each PRP (3×10^-7 M).

For a further data set, the system named is human platelets. The experiment in a line: U-46619 (thromboxane A2 mimic)-induced aggregation in human platelets (Experiment 2). The data set is classed as cell-based. Particulars: Platelet, U-46619 10^-5 ~3×10^-5 M; for inhibition at 0.3 µM: 3 × 10^-7 M; for inhibition at 0.1 µM: 10^-7 M. The procedure:
Thromboxane A2 antagonistic activity Effect on thromboxane A2 minic (U-46619) - induced aggregation in human platelets.
as §1, with “300,000/μl” for “5,000,000/μl”, “(10^-5 ~3×10^-5” for “(3×10^-7”

Another data set concerns rats. Put plainly: Oral toxicity in rats, 2 weeks. The data set is classed as in vivo, rat. The settings on record: orally, 1000 mg/kg/day for 2 weeks, 3 rats. Here is the method: Toxicity of the derivatives of the present invention is low. For example, in case that (R)-7-(4-fluorophenyl)-7-(5-hydroxy-6,7-dimethyl-l-oxoindan-4-yl)heptanoicacid was administered orally to 3 rats at a dose of 1000 mg/kg/day for 2 weeks, no rat died. The derivatives of the present invention can be safely administered orally or parenterally as they are or as pharmaceutical compositions of known forms obtained by admixing them with known pharmaceutically acceptable carriers, excipients and the like, for example, tablets, capsules (including soft capsules and micro-capsules), liquids, injection preparations, suppositories and the like, according to pharmaceutically acceptable methods. The dosage is varied according to patients, routes of administration, conditions of diseases to be treated and the like. However, in the case of oral administration to, for example, an adult patient, usually, a dose per one administration is about 0.1 to 20 mg/kg of the body weight, perferably, about 0.1 to 10 mg/kg of the body weight and, conveniently, the administration is carried out one to two times per day.

Data set [1] concerns U-46619 (TXA2 minic) - induced bronchoconstriction in guinea pig. The experiment in a line: Inhibitory effect on U-46619 (TXA2 mimic)-induced bronchoconstriction in guinea pig (Experiment 4). The data set is classed as in vivo. The settings on record: orally 1 hour before U-46619 (10 μg/kg), p < 0.01 vs control group. Here is the method: Inhibitory effect on U-46619 (TXA2 minic) - induced bronchoconstriction in guinea pig.
Method: Six male Hartley guinea pig were used per one group. The guinea pig anesthetized with urethane (1.5 g/kg, i.p.) was fixed in a dorsal position, subjected to tracheotomy and connected to a respirator through a cannula. A side branch of the tracheal cannula was connected to a respirator (Harvard apparatus rodent respirator Type 680) at the rate of 70 strokes/min. and a constant volume of 3 to 5 ml.
Inflation pressure was kept constant at 10 cm H2 O.
After treatment with gallamine triethiodide (1 mg/kg, i.v.), U-46619 (10 μg/kg) dissolved in a physiolosical saline solution was given through a carotid cannula and the airway resistance was measured by the overflow technique of Konzett-Rossler method (Konzett, H. and Rossler, R., Naunyn-Schmiedegerg's Arch, Exp. Path. Pharmak., 195, 71-74 (1940)). A test compound was suspended in 5% gum arabic solution and was administered orally 1 hour before the tratment with U-46619.

Data set [2] relates to guinea pig tracheal strip. The experiment in a line: Inhibitory effect on U-46619 (TXA2 mimic)-induced contraction in guinea pig tracheal strip (Experiment 3). The settings on record: Cavia porcellus; U-46619 10^-8 M; compound added 1 minute before; read-out: IC50 (Concentration for 50% inhibition). The procedure:
Inhibitory effect on U-46619 (TXA2 minic) - induced contraction in guinea pig tracheal strip
Method: Guinea pig tracheae were removed, and tracheal strips were prepared. Each strip was placed in a 10 ml organ bath containing Tyrode's solution aerated with 5% CO2 -95% O2 gas at 37° C. The tracheal strip was placed under resting tension of 1 g. The contractile response of the strip to thromboxane A2 minic U-46619 (10^-8 M) were examined. The strip was treated with the test compound for 1 minute before the addition of U-46619.
Result: The results are shown in Table 10 as the concentration for 50% inhibition (IC50).

Turning to `Cc1c(C)c(CO)c(C)c([C@H](CCCCCC(=O)O)c2ccc(F)cc2)c1O` [Compound 20, (R)-7-(4-fluorophenyl)-7-(2-hydroxy-5-hydroxylmethyl-3,4,6-trimethylphenyl)heptanoic acid], the “% Inhibition of aggregation” value is 12% in the data set with guinea-pig platelets (3 × 10^-8 M), 77% with guinea-pig platelets (10^-7 M) and 3% in the data set on guinea-pig platelets (10^-8 M). In the data set with human platelets, this molecule returned an inhibition at 0.3 µM of 100%. Moreover, in the data set on human platelets, at 0.1 µM the inhibition was 48%.
As for `Cc1c(C)c2c(c([C@H](CCCCCC(=O)O)c3ccc(F)cc3)c1O)CCC2=O` [Compound 28, (R)-7-(4-fluorophenyl)-7-(5-hydroxy-6,7-dimethyl-1-oxoindan-4-yl)heptanoic acid], the “% Inhibition of aggregation” value is listed as 5% in the data set on guinea-pig platelets (3 × 10^-8 M), 36% with guinea-pig platelets (10^-7 M) and 0% with guinea-pig platelets (10^-8 M). Besides, the inhibition at 0.3 µM with guinea-pig platelets (Cavia porcellus, Platelet, 3 × 10^-7 M) is 89%; in the data set with human platelets, 100%. Further, the mortality result in the data set with rats is “no rat died”. In addition, the “% Inhibition” value in data set [1] (0.31 mg/kg) and in data set [1] (1.25 mg/kg) was 84% each time. In addition, in the data set with human platelets (3 × 10^-8 M), the inhibition at 0.03 µM is 30%. For the same molecule, the inhibition at 0.1 µM in the data set with human platelets was determined as 78%. In addition, the inhibition at 0.01 µM in the data set with human platelets (10^-8 M) was determined as 13%. Also, the pIC50 in data set [2] is 9.15.

One may read the inhibition as the share of the control response that was lost under treatment. By % Inhibition is commonly meant the relative decrease from the control value, in per cent.
